These results are taken from patent US4789675A, “1,4-benzoxazine derivatives and pharmaceutical use” (priority 1986, dated 1988).

Data set [1] has as its system caffeine-induced contraction of rabbit aorta strip depending on intracellular Ca^++. Nature of the data set: Intracellular Ca++ antagonism: inhibition of caffeine-induced contraction of aorta strip in Ca-free/EGTA solution. The note with it: Oryctolagus cuniculus, caffeine 20 mM, Ca++ 0 mM, EGTA 5 mM, read-out: Inhibitory percent (caffeine contraction); for inhibition at 1 µM: compound 10^-6 M; for inhibition at 10 µM: compound 10^-5 M. The method, then:
A spiral strip of aorta of a rabbit (2 to 3 mm width, aobut 3 cm length) was allowed to equilibrate by hanging under 2 g force in a Krebs-Henseleitsolution. The solution was saturated with a mixture gas of 97% O2 -3% CO2, which was warmed to 37° C. The strip was moved into another Krebs-Henseleit solution containing Ca^++ OmM and EGTA 5 mM. Five minutes later, caffeine (20 mM) was added to the solution. The resulting contraction of the strip was made as the index of the contraction depending on intracellular Ca^++.

Data set [2] relates to Spontaneously hypertensive rats. The data set is described as follows: Antihypertensive action in spontaneously hypertensive rats (tail-cuff). In kind it is in vivo, rat. Conditions: 1 hour after administration. The method, then: Spontaneously hypertensive rats (male, 12 to 13 weeks old, blood pressure before administration of drug was about 200 mmHg) were used in groups of 3 individuals. After measuring tail arterial pressure of these animals by the tail-cuff method, the animals were orally given 3 to 60 mg/kg of each test compound of this invention as 2 ml of its suspension in gum arabic. Blood pressure measurements were made again one hour after administration of each test compound.

Data set [3] can be described thus: Acute toxicity (oral, 7 days observation). The note with it: rat, in vivo, male rats, five animals/group, seven days. An excerpt: Male Wister rats aged five weeks (five animals/group) were orally given the test compounds (Example No. 1, 14, 15 and 18) suspended in a 5% solution of gum arabic. Each animal so treated was observed over a period of seven days.
The subject of another data set is intracellular Ca^++. The note with it: (2) Ca++ liberated from intracellular store; (3) influx through receptor-operated channel; cited from earlier work.
The conditions of data set [4]: in vivo; cited from earlier work.
Data set [5] concerns contraction of rabbit aorta strip caused by KCl. The data set is described as follows: Vasodilating action: inhibition of contraction of aorta strip caused by KCl. The note with it: Oryctolagus cuniculus, compound 10^-5 M, KCl (6.0 mM), read-out: Inhibitory percent against contraction (KCl). The method, then:
(§1) A spiral strip of aorta of a rabbit (2 to 3 mm width, about 3 cm length) was allowed to equilibrate by hanging under 2 g force in a Krebs-Henseleitsolution. The solution was saturated with a mixture gas of 97% O2 -3% CO2 which was warmed to 37° C. Inhibitory actions of compounds (10^-5 M) of this invention against contraction of the aorta strip caused by KCl ([…]), norepinephrine (NE) (10^-6 M) or serotonin (5-HT) (10^-6 M), by treating the strip with a compound of this invention 30 minutes before the test (15 minutes in the case of 5-HT), are shown in Table 1 as inhibitory percentage.

Data set [6] deals with contraction of rabbit aorta strip caused by norepinephrine (NE). The data set is described as follows: Vasodilating action: inhibition of contraction of aorta strip caused by norepinephrine (NE). Conditions: Oryctolagus cuniculus, compound 10^-5 M, NE 10^-6 M, read-out: Inhibitory percent against contraction (NE). The method, then: as §1
The test system of data set [7] is contraction of rabbit aorta strip caused by serotonin (5-HT). Nature of the data set: Vasodilating action: inhibition of contraction of aorta strip caused by serotonin (5-HT). Conditions: Oryctolagus cuniculus; compound 10^-5 M; 5-HT 10^-6 M; treated 15 minutes before the test; read-out: Inhibitory percent against contraction (5-HT). The method, then:
as §1

The test system of data set [8] is ischemia-reperfusion-induced ventricular arrhythmia in rats. The data set is described as follows: Effect on the ischemia-reperfusion-induced ventricular arrhythmia in rats. In kind it is in vivo, rat. Conditions: for Cardiac arrest incidence / Ventricular fibrillation incidence / Ventricular tachycardia incidence: p.o., rats with change/rats used; for Cardiac arrest incidence: control 8/18; for Ventricular fibrillation incidence: control 17/18; for Ventricular tachycardia incidence: control 18/18. The method, then: Male Sprague-Dawley rats, 9 to 10 week old, were orally given the compounds or tap water at a volume of 5 ml/kg. After one hour, the animals were anesthetized with sodium pentobarbital (50 mg/kg, by intraperitoneal injection), and they were subjected to thoractomy under artificial respiration, and the left anterior descending coronary artery was occluded for five minutes. The incidences of ventricular tachycardia, ventricular fibrilation and cardiac arrest for ten minutes after reperfusion of the blood were calculated.

For data set [9], the system named is acute renal failure in rats. Nature of the data set: Effect on acute renal failure in rats (plasma urea nitrogen, BUN). Type of data set: in vivo, rat. Conditions: for BUN: p.o., control 27 ± 1, *P < 0.05. The method, then:
Male sprague-Dawley rats, 6 week old, were orally given the compunds or tap water at a volume of 5 ml/kg. After one hour, the animals were anesthetized with sodium pentobarbital. The animals were subjected to laparotomy, and the left renal artery was clamped completely for one hour. The clamp was undone, and the incision was closed. The animals were again given orally the compounds or tap water 20 hours later. Further four hours later, the animals were again anesthetized, and the blood was obtained from the abdominal aorta. The plasma was separated for measurement of urea nitrogen (BUN).

For data set [10] the following is noted: cited from earlier work.
[11] abbreviates: treated 30 minutes before the test.

Structures are written as SMILES. Counter-ions that a name gives are not always drawn. Like-named read-outs stand apart in the source and are kept apart here.

As to `O=C1Nc2cc3c(cc2OC1CCCN1CCN(c2cccc(F)c2)CC1)CCCC3` (centres unmarked) [Example 14], the inhibition at 1 µM in data set [1] was determined as 61%. Besides, the “Antihypertensive effect (Δ mm Hg)” value in data set [2] (3 mg/kg oral) was determined as 54 mm Hg. Moreover, the median lethal dose (LD50) (commonly the dose expected to kill half of the subjects tested) at 168 h in [3] is at least 300 mg/kg.

As for `COC(=O)C1=C(C)NC(C)=C(C(=O)OC)C1c1ccccc1[N+](=O)[O-]` [nifedipine], the “action on intracellular Ca++” value in the data set on intracellular Ca^++ is “hardly acts on (2) and (3)”.

In the case of `CN1CCN(CCCN2c3ccccc3Sc3ccc(C(F)(F)F)cc32)CC1` [trifluoperazine], the “action on intracellular Ca++” value in the data set on intracellular Ca^++ is on record as “showing antagonism against intracellular Ca^++”. In addition, the side effects result in [4] is on record as “side effects e.g. on the central nervous system”.

Regarding `NCCCCCCNS(=O)(=O)c1cccc2c(Cl)cccc12` [Example W-7], in the data set with intracellular Ca^++, the “action on intracellular Ca++” value is reported as “weak in action”.

For `O=C1Nc2cc3c(cc2OC1CCCN1CCN(c2ccc(F)cc2)CC1)CCCC3` (centres unmarked) [1 (2HCl salt), 2-{3-[4-(4-fluorophenyl)-1-piperazinyl]propyl}-6,7,8,9-tetrahydro-2H-naphtho[2,3-b][1,4]oxazin-3(4H)-one], the inhibition at 10 µM in data set [5] (treating 3 hours before the test (*1)) is 82%; in data set [6] (treating 2 hours before the test (*2)) it was 95%; in data set [7] it was 52%. Further, the “Antihypertensive effect (Δ mm Hg)” value in data set [2] (3 mg/kg oral) was determined as 30 mm Hg; in data set [2] (10 mg/kg oral), 50 mm Hg. The results for the Cardiac arrest incidence in [8] (3 mg/kg), in [8] (10 mg/kg) and in [8] (20 mg/kg) were 2/9, 4/11 and 0/5, respectively. Also, the Ventricular fibrillation incidence in data set [8] (3 mg/kg, *P < 0.05) is recorded as 5/9; in data set [8] (10 mg/kg, **P < 0.01), 5/11; in data set [8] (20 mg/kg, **P < 0.01), 0/5. In addition, the Ventricular tachycardia incidence is listed as 7/9 in [8] (3 mg/kg); 7/11 in [8] (10 mg/kg, **P < 0.01); 2/5 in [8] (20 mg/kg, **P < 0.01). The figures for the BUN in data set [9] (1 mg/kg), in data set [9] (3 mg/kg) and in [9] (10 mg/kg) were 24 ± 0.5 mg/dL, 22 ± 2 mg/dL and 23 ± 0.5 mg/dL, respectively.

On to `COc1cc2nc(N3CCN(C(=O)c4ccco4)CC3)nc(N)c2cc1OC` [prazosin], for which the side effects entry in [4] is “orthostatic hypotension often observed”.

For the compound `CCN(CC)CCCCCCCCOC(=O)c1cc(OC)c(OC)c(OC)c1` [TMB-8], in data set [1], the inhibition at 10 µM amounted to 48%. Further, in the data set with intracellular Ca^++, the “action on intracellular Ca++” value is “weak in action”. The “antihypertensive action in vivo” value in data set [10] is “do not display antihypertensive action in vivo”.

Take `COc1ccccc1N1CCN(CCCC2Oc3cc4c(cc3NC2=O)CCCC4)CC1` (centres unmarked) [Example 15]: the inhibition at 10 µM in [5] (setting [11]) came out at 8%; in data set [6] (setting [11]) it was 100%. The inhibition at 1 µM in [1] is 58%. Moreover, the “Antihypertensive effect (Δ mm Hg)” value in data set [2] (3 mg/kg oral) was determined as 49 mm Hg. This compound also yielded an LD50 at 168 h in data set [3] of at least 300 mg/kg.

In the case of `O=C1Nc2cc3c(cc2OC1CCCN1CCN(c2ccc(F)cc2)CC1)CCCC3` (centres unmarked) [Example 1, 2-{3-[4-(4-fluorophenyl)-1-piperazinyl]propyl}-6,7,8,9-tetrahydro-2H-naphtho[2,3-b][1,4]oxazin-3(4H)-one], in [1], the inhibition at 10 µM was 87% and the inhibition at 1 µM came to 60%. In addition, the “incidences of cardiac functional abnormalities” value in data set [8] (3, 10, and 20 mg/kg given orally) was “inhibited the incidences of cardiac functional abnormalities in a dose-dependent manner”. Besides, the “increase in BUN” value in data set [9] (1, 3 and 10 mg/kg given orally) is given as “inhibited the increase in BUN”. In [3], the LD50 at 168 h is at least 300 mg/kg.

For the compound `O=C1Nc2cc3c(cc2OC1CCCN1CCN(c2ccccc2)CC1)CCCC3` (centres unmarked) [Example 18], in [1], the inhibition at 1 µM turned out to be 59%. Moreover, in data set [2] (3 mg/kg oral), the “Antihypertensive effect (Δ mm Hg)” value was 32 mm Hg. The same compound yielded an LD50 at 168 h in data set [3] of at least 300 mg/kg.
